From BindingDB's records for doi:10.1021/jm800555h (The Scripps Research Institute, 2008) come the findings set out here.

In general, Ki refers to the equilibrium dissociation constant of an inhibitor or competing ligand from its target.

Bifunctional purine biosynthesis protein ATIC, sequence (P31939 whole entry): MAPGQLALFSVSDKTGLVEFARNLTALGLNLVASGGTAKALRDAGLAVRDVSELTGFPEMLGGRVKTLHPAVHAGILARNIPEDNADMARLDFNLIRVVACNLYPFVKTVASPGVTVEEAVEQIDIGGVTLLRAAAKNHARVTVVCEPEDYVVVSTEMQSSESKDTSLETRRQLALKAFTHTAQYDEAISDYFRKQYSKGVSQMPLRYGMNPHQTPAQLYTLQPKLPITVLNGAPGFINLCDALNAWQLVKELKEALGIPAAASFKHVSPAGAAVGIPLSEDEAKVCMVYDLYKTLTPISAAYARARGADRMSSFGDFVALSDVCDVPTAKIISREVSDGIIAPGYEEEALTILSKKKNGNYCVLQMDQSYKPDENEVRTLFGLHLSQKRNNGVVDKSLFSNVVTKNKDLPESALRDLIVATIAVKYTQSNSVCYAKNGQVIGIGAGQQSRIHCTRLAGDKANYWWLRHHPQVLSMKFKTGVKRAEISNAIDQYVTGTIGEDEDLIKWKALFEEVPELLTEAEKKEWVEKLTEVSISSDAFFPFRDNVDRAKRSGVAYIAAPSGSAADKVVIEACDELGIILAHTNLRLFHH

The first experiment concerns the target Bifunctional purine biosynthesis protein ATIC (Homo sapiens, UniProt P31939). Put plainly: AICAR Tfase Inhibition Assay. The conditions noted are these: pH 7.4; 26 °C. An excerpt: Recombinant human AICAR Tfase was used in the inhibition assay. The reaction was monitored at 298 nm by measuring the increase in absorbance corresponding to the formation of THF. The THF was generated in the transfer reaction of the formyl group from cofactor to AICAR to produce 5-formyl-AICAR. Double reciprocal plots were used to determine the Ki values.
As to `Nc1nc(N)c(CCC[C@@H](O)c2ccc(C(=O)NC(CCC(=O)O)C(=O)O)cc2)c(=O)[nH]1` (stereo partly drawn) [2-({4-[(1R)-4-(2,4-diamino-6-oxo-1,6-dihydropyrimidin-5-yl)-1-hydroxybutyl]phenyl}formamido)pentanedioic acid], the inhibition constant (Ki) is over 100 µM. On the same count and under the same terms, under `CO[C@H](CCCc1c(N)nc(N)[nH]c1=O)c1ccc(C(=O)NC(CCC(=O)O)C(=O)O)cc1` (stereo partly drawn) [2-({4-[(1R)-4-(2,4-diamino-6-oxo-1,6-dihydropyrimidin-5-yl)-1-methoxybutyl]phenyl}formamido)pentanedioic acid] stands over 100 µM; under `Nc1nc(N)c(CCC[C@H](O)c2ccc(C(=O)NC(CCC(=O)O)C(=O)O)cc2)c(=O)[nH]1` (stereo partly drawn) [2-({4-[(1S)-4-(2,4-diamino-6-oxo-1,6-dihydropyrimidin-5-yl)-1-hydroxybutyl]phenyl}formamido)pentanedioic acid], over 100 µM; under `CO[C@@H](CCCc1c(N)nc(N)[nH]c1=O)c1ccc(C(=O)NC(CCC(=O)O)C(=O)O)cc1` (stereo partly drawn) [2-({4-[(1S)-4-(2,4-diamino-6-oxo-1,6-dihydropyrimidin-5-yl)-1-methoxybutyl]phenyl}formamido)pentanedioic acid], over 100 µM. On the same count and under the same terms, the result for `CS[C@H](CCCc1c(N)nc(N)[nH]c1=O)c1ccc(C(=O)NC(CCC(=O)O)C(=O)O)cc1` (some centres not stated) [10R (8)] reads over 100 µM; that for `CS[C@@H](CCCc1c(N)nc(N)[nH]c1=O)c1ccc(C(=O)NC(CCC(=O)O)C(=O)O)cc1` (some centres not stated) [10S (7)], over 100 µM.

Another experiment addresses T1, Trifunctional purine biosynthetic protein adenosine-3 (Homo sapiens, UniProt P22102).
T1 sequence (P22102 whole entry): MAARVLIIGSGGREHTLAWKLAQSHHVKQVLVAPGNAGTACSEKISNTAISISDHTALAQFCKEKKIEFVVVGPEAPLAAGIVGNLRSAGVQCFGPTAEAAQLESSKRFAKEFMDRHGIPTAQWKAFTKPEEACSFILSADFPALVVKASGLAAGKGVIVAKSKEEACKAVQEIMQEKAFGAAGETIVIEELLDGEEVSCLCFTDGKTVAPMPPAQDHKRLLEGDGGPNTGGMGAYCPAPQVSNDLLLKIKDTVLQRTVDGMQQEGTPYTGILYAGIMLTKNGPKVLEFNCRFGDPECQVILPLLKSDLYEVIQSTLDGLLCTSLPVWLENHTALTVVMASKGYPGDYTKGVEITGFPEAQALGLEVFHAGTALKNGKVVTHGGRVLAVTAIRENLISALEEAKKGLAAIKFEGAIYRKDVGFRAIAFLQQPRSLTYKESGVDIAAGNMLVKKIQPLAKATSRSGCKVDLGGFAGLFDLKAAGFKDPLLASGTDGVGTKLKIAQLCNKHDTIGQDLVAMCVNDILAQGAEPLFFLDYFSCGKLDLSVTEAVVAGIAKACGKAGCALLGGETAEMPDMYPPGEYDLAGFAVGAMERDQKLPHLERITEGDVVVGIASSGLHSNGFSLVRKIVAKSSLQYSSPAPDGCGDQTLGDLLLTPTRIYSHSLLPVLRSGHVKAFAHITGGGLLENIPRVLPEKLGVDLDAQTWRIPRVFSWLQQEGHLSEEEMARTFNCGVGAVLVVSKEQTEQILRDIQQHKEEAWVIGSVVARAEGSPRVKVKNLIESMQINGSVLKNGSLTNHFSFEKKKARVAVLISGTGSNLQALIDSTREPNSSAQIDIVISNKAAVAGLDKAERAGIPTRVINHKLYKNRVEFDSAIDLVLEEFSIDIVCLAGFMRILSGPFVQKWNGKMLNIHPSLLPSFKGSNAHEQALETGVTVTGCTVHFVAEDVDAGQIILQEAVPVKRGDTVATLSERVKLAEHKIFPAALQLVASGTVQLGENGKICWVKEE
Put plainly: GAR Tfase Activity Assay. The following applies: pH 7.5; 26 °C.
Regarding `Nc1nc(N)c(CCC[C@@H](O)c2ccc(C(=O)NC(CCC(=O)O)C(=O)O)cc2)c(=O)[nH]1` (stereo partly drawn) [2-({4-[(1R)-4-(2,4-diamino-6-oxo-1,6-dihydropyrimidin-5-yl)-1-hydroxybutyl]phenyl}formamido)pentanedioic acid], the Ki was found to be 1.1 µM.
